Measurements published in US6051417A, “Prostate cancer drug screening using hKLK2 enhancer” (Calydon, Inc., priority 1997, dated 2000).
Like-named read-outs stand apart in the source and are kept apart here.

Tests used:
[1] = Metabolism of dihydrotestosterone in CN1013 cell line (Testosterone ELISA); conditions: human, cn1013 cells
CN1013 cells = test: as above
[2] = system: PSE-Luc (PSA enhancer/promoter-luciferase) in LNCaP cells; test: Transient transfection of LNCaP cells with PSE-Luc, luciferase assay
[3] = system: PSE-Luc/LNCaP cell line CN1013; test: Stably transfected PSE-Luc/LNCaP cell line CN1013 (and subclone CN1013.7), luciferase assay; conditions: for inhibition of luciferase expression after induction with 1 nM R1881: CN1013, all anti-androgen concentrations examined; for concentration, relative to R1881, giving luciferase expression levels similar to R1881 / luciferase expression at physiological concentrations: CN1013, anti-androgen alone
[4] = system: hKLK2 promoter/enhancer-luciferase constructs in 293 cells; test: hKLK2 promoter/enhancer-driven luciferase expression in transfected 293 cells; assay type: cell-based, human; conditions: 1 nM R1881
Procedure: (§1) Knowing that the PSA enhancer is tissue specific, a series of experiments was conducted to determine if the same was true for the hKLK2 enhancer. In the first experiment, LNCaP cells (a PSA-producing prostate cancer cell line) and 293s (a human embryonic kidney cell line) were transfected with CN299 or CN322 (Example 2). Half of the dishes were supplemented with 1 nM R1881, and the cells were harvested 48 hours post transfection. […] The results of this experiment again support the conclusion that the hKLK2 enhancer is androgen inducible.

[5] = system: CN322 or CN355 in OVCAR, 293, PC3 cells; test: hKLK2 enhancer/promoter luciferase activity in other cell lines (OVCAR, 293, PC3); assay type: cell-based; conditions: Homo sapiens, 48 h, read-out: fold induction of activity
Procedure: FIG. 7 is a bar graph depicting the activity of the hKLK2 enhancer/promoter in various cell lines. Various cell lines were transfected with either CN322 or CN355, and, after an overnight incubation in complete medium, were incubated in the presence or absence of R1881. CN355 contains a 3.8 kb fragment from approximately -6200 to approximately -2400 of the hKLK2 enhancer fused to the minimal hKLK2 promoter to control luciferase expression. The cell lines used were: OVCAR, human ovarian adenocarcinoma; 293, transformed human primary embryonal kidney; PC3, human grade IV prostate adenocarcinoma; LNCaP, metastatic human prostate adenocarcinoma.
(§2) This 3.8 kbp fragment was fused upstream of the minimal hKLK2 promoter and then cloned upstream of the luc gene, creating CN355. A variety of cell lines were transfected with CN322 or CN355 by incubating them with the complexes in complete media overnight. The complexes were then aspirated and the media was replaced with stripped serum media. The media in half of the plates was supplemented with 1 nM R1881. The cells were then harvested 48 hours after the removal of the DNA-lipid complexes and tested for luciferase activity.

[6] = system: hKLK2 promoter/enhancer-luciferase constructs in LNCaP cells; test: hKLK2 promoter/enhancer-driven luciferase expression in transfected LNCaP cells; assay type: cell-based, human; conditions: for fold induction at 0.001 µM: Homo sapiens, LNCaP, 48 h
Excerpt: To assess the function of the DNA segment containing the enhancer, a series of constructs was generated by inserting the hKLK2 5'-flanking region, shown schematically in FIG. 2, upstream of the luciferase reporter gene. The activity of these fragments was compared with that of CN299, a plasmid with the full hKLK2 promoter (-605 to +33) driving the expression of firefly luciferase. The constructs are as follows:
To determine the effect of the 12 kbp 5'-flanking sequence on promoter activity, two constructs were created: CN299 and CN322. The hKLK2 promoter was cloned upstream of the luc gene to create CN299, as described in Example 2. The entire 12 kbp sequence upstream of the hKLK2 gene (including the promoter) was cloned upstream of the luc gene to create CN322, as described in Example 2. Each construct was then used to transfect LNCaP cells. The media in half of the dishes was supplemented with 0.5 nM R1881. The cells were harvested 48 hours post transfection and the luciferase activity was measured. […] At both R1881 concentrations tested, CN322 had higher activity than CN299.
To determine if the hKLK2 5'-flanking sequence did indeed contain an androgen responsive element, two experiments were conducted. In the first experiment, LNCaP cells were transfected with CN322, the transformants were incubated in medium containing various concentrations of R1881, and 48 hours after transfection, luciferase activity was measured. […] Peak induction of activity was estimated at 1 nM R1881, about 9 fold over the 0 nM activity.
as §1, §2

[7] = system: CMV-Luc/LNCaP stable cell line; test: CMV-Luc/LNCaP stable cell line luciferase expression (control); assay type: cell-based, human; conditions: 10-1000 nM androgen
Procedure: CMV-Luc/LNCaP Cell Line. Transfections of the control plasmid, CMV-Luc, into LNCaP cells were done in the same fashion as for PSE-Luc. The stable cell line CN1006, containing CMV-Luc, was obtained by selection with G418. The luciferase assay was performed as described above.
Luciferase Expression of CMV-Luc/LNCaP Stable Cell Line. LNCaP clones containing the CMV-Luc gene were screened for stable expression of the luciferase gene (i.e. selection of stable cell line). A 3-4 fold increase in expression levels over the uninduced cells was observed upon the addition of 10-1000 nM androgen. A similar androgen stimulation of CMV-Luc expression in transient transfection of LNCaP cells was reported by Pang et al., Hum. Gene Ther. (1995) 6:1417-1426. The slight increase in expression levels was attributed to cell proliferation resulting from increased R1881 addition.

SMILES: C[C@]12CCC(=O)C[C@@H]1CC[C@@H]1[C@@H]2CC[C@]2(C)[C@@H](O)CC[C@@H]12 [DHT, dihydrotestosterone]
- half-life at 0.01 µM [1]: ~1.1 h
- time within which metabolism occurs after addition to CN1013 cells (CN1013 cells): 1 to 4 h
- concentration when unexposed to CN1013 cells (CN1013 cells; medium without cells): remained constant
- amount required relative to R1881 to obtain comparable luciferase activity [2]: approximately 100 fold
- luciferase expression ([2]; DHT 100 and 200 nM): 2,500-3,000 RLUs
- amounts required for comparable expression relative to R1881 ([3]; CN1013): 100-200 fold

SMILES: C[C@]1(O)CC[C@H]2[C@@H]3CCC4=CC(=O)CCC4=C3C=C[C@@]21C [R1881, methyl trienolone]
- change of luciferase activity ([4]; CN299, 293 cells): reduction of activity
- change of luciferase activity ([4]; CN322, 293 cells): reduction of luciferase activity
- fold induction at 0.001 µM [5]: 1 to 2
- concentration giving peak levels of luciferase expression [2]: 1 nM
- luciferase expression ([2]; 1-50 nM R1881, 48 hours): 3,000-3,500 RLUs
- concentration giving peak values of induction ([3]; CN1013): 0.1 to 1 nM
- EC50 ([3]; Homo sapiens, LNCaP, read-out: EC50 of luciferase induction): 0.075 nM
- fold induction of luciferase ([3]; subclone CN1013.7): 100-200 fold
- response of CN322 luciferase activity to concentration ([6]; CN322, LNCaP, 0-10 nM R1881): concentration dependent manner
- fold induction of luciferase activity ([6]; CN379, same assay methods, R1881): approximately 54 fold
- fold induction at 0.001 µM ([6]; read-out: fold induction of activity vs 0 nM R1881, CN299, LNCaP, 1 nM R1881, 48 hours): 2 to 3
- fold induction at 0.001 µM ([6]; read-out: fold induction of activity vs 0 nM R1881, CN322, LNCaP, 1 nM R1881, 48 hours (Example 5 first experiment, FIG. 6)): 17
- fold induction at 0.001 µM ([6]; read-out: fold induction of activity, CN322, LNCaP, 1 nM R1881, stripped serum media, 48 hours (FIG. 7)): ~100
- fold induction at 0.001 µM ([6]; read-out: fold induction of activity, CN355, LNCaP, 1 nM R1881, stripped serum media, 48 hours (FIG. 7)): 35
- fold induction at 0.001 µM ([6]; read-out: peak induction of luciferase activity over the 0 nM activity, CN322, LNCaP, 1 nM R1881, 48 hours after transfection): ~9
- fold increase in expression levels over uninduced cells [7]: 3-4 fold

SMILES: CC(=O)O[C@]1(C(C)=O)CC[C@H]2[C@@H]3C=C(Cl)C4=CC(=O)[C@@H]5C[C@@H]5[C@]4(C)[C@H]3CC[C@@]21C [cyproterone acetate]
- inhibition of luciferase expression after induction with 1 nM R1881 [3]: neither inhibition nor induction
- concentration, relative to R1881, giving luciferase expression levels similar to R1881 [3]: 100-1,000 fold
- luciferase expression at physiological concentrations [3]: zero or minimal expression

SMILES: CC(C)(O)C(=O)Nc1ccc([N+](=O)[O-])c(C(F)(F)F)c1 [hydroxyflutamide]
- inhibition of luciferase expression after induction with 1 nM R1881 [3]: neither inhibition nor induction
- concentration, relative to R1881, giving luciferase expression levels similar to R1881 [3]: 100-1,000 fold
- luciferase expression at physiological concentrations [3]: zero or minimal expression

SMILES: CC1=C(/C=C/C(C)=C/C=C/C(C)=C/C(=O)O)C(C)(C)CCC1 [retinoic acid]
- induction or inhibition of CN1013 luciferase ([3]; CN1013, non-steroidal ligand unrelated to androgen receptor): did not result in either induction or inhibition
